target: VEGFR-2 kinase (Homo sapiens (Human), UniProt P35968); experiment: Test of small molecule compounds for inhibiting the activity of VEGFR-2 kinase; format: biochemical; settings: class symbols A-D
Protocol: Test of Small Molecule Compounds for Inhibiting the Activity of VEGFR-2 Kinase
The test was carried out as follows:
2. 2.5 μl of the gradient-diluted compounds was taken with a transfer pipette to a 384-well plate,
3. Addition of enzyme: 5 μl of 2×VEGFR-2 kinase was taken with a transfer pipette to the corresponding reaction well of the 384-well plate, which was mixed and pre-reacted at room temperature for 30 min,
5. Negative control: 2.5 μl/well 4× substrate/ATP Mix and 7.5 μl 1× Kinase Assay Buffer were added to the wells of the 384-well plate,
Positive control: 2.5 μl/well 4× substrate/ATP Mix, 2.5 μl/well 1× Kinase Assay Buffer containing 4% DMSO, and 5 μl/well 2×VEGFR-2 solution were added to the 384-well plate. The final concentration of DMSO in the reaction system is […],
6. The mixture was mixed well and then centrifuged and reacted at room temperature in dark for 60 min,
9. The 384-well plate was placed into the Envision plate reader and the signal was detected using the appropriate program,

Sequence of VEGFR-2 kinase (P35968 20-1356): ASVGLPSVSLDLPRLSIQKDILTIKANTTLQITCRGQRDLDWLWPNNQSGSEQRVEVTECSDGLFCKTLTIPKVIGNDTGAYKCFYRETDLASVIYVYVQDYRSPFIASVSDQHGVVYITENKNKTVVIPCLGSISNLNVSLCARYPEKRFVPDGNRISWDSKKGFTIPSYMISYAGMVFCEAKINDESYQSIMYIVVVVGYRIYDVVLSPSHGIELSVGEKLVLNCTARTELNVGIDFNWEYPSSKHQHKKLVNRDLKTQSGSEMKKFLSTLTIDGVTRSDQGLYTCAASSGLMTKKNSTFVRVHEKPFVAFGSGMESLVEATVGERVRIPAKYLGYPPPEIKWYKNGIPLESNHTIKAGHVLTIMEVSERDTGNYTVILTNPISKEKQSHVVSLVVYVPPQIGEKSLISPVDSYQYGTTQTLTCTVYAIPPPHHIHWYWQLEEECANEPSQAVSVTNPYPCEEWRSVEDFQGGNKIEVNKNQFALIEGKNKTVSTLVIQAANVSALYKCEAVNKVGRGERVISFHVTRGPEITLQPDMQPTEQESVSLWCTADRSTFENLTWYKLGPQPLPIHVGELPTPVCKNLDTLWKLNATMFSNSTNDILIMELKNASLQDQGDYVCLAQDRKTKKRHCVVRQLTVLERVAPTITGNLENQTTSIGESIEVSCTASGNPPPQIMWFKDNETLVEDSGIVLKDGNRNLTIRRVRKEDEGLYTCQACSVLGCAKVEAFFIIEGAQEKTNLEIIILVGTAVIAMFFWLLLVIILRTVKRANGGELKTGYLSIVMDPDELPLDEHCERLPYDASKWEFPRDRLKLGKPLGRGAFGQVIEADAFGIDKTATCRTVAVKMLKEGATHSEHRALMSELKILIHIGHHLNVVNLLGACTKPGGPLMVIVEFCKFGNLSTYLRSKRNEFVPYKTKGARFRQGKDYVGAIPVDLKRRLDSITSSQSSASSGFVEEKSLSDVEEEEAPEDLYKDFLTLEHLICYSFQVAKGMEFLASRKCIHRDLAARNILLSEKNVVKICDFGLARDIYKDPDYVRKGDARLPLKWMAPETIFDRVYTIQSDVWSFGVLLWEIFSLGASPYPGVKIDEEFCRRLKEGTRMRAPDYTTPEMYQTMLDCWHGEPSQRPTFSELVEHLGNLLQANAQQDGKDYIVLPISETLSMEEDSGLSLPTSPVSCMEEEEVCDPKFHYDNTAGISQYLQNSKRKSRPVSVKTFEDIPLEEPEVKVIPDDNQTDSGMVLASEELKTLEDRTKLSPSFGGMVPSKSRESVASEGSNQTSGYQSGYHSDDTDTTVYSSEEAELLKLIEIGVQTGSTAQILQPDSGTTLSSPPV

IC50 [nM] | Structure (SMILES)
> 5000 | COCCOc1cc2ncnc(Nc3ccc(NC(=O)Nc4ccc(Oc5ccccc5)cc4)c(Cl)c3)c2c2c1OCCO2 [Example 44, 1-(2-chloro-4-((5-(2-methoxyethoxy)-2,3-dihydro-[1,4]dioxino[2,3-f]quinazolin-10-yl)amino)phenyl)-3-(4-(phenoxy)phenyl)urea]
50 to 500 | COc1cc2nccc(Oc3ccc(NC(=O)Nc4ccc(Cl)c(C(F)(F)F)c4)c(F)c3)c2c2c1OCCO2 [Example 92, 1-(4-chloro-3-(trifluoromethyl)phenyl)-3-(2-fluoro-4-((5-methoxy-2,3-dihydro-[1,4]dioxino[2,3-f]quinoline-10-yl)oxy)phenyl)urea]
50 to 500 | COc1cc2nccc(Oc3ccc(NC(=O)Nc4ccc(Cl)c(C(F)(F)F)c4)cc3F)c2c2c1OCCO2 [Example 91, 1-(4-chloro-3-(trifluoromethyl)phenyl)-3-(3-fluoro-4-((5-methoxy-2,3-dihydro-[1,4]dioxino[2,3-f]quinoline-10-yl)oxy)phenyl)urea]
< 50 | COCCOc1cc2ncnc(Oc3ccc(NC(=O)Nc4ccnc(OC)c4)cc3)c2c2c1OCCO2 [Example 52, 1-(4-((5-(2-methoxyethoxy)-2,3-dihydro-[1,4]dioxino[2,3-f]quinazolin-10-yl)oxy)phenyl)-3-(2-methoxypyridin-4-yl)urea]
< 50 | COCCCOc1cc2ncnc(Oc3ccc(NC(=O)NC4CC4)c(Cl)c3)c2c2c1OCCO2 [Example 86, 1-(2-chloro-4-(((5-(3-methoxy)propoxy)-2,3-dihydro-[1,4]dioxino[2,3-f]quinazolin-10-yl)oxy)phenyl)-3-cyclopropylurea]
< 50 | COCCOc1cc2ncnc(Nc3ccc(NC(=O)Nc4ccccc4)c(Cl)c3)c2c2c1OCCO2 [Example 37, 1-(2-chloro-4-((5-(2-methoxyethoxy)-2,3-dihydro-[1,4]dioxino[2,3-f]quinazolin-10-yl)amino)phenyl)-3-phenylurea]
< 50 | O=C(Nc1ccc(Oc2ncnc3cc(OCCCN4CCOCC4)c4c(c23)OCCO4)cc1)Nc1cc(Cl)ccc1F [Example 89, 1-(2-fluoro-5-chlorophenyl)-3-(4-((5-(3-morpholinopropoxy)-2,3-dihydro-[1,4]dioxino[2,3-f]quinazolin-10-yl)oxy)phenyl)urea]
< 50 | COc1cc2ncnc(Nc3ccc(NC(=O)Nc4ccc(F)cc4)c(Cl)c3)c2c2c1OCCO2 [Example 7, 1-(2-chloro-4-((5-methoxy-2,3-dihydro-[1,4]dioxino[2,3-f]quinazolin-10-yl)amino)phenyl)-3-(4-fluorophenyl)urea]
< 50 | COCCOc1cc2ncnc(Nc3ccc(NC(=O)Nc4ccc(F)cc4)c(Cl)c3)c2c2c1OCCO2 [Example 38, 1-(2-chloro-4-((5-(2-methoxyethoxy)-2,3-dihydro-[1,4]dioxino[2,3-f]quinazolin-10-yl)amino)phenyl)-3-(4-fluorophenyl)urea]
< 50 | O=C(Nc1ccc(Oc2ncnc3cc(OC4CCOC4)c4c(c23)OCCO4)cc1)Nc1cc(C(F)(F)F)ccc1F (stereo not drawn) [Example 80, 1-(2-fluoro-5-(trifluoromethyl)phenyl)-3-(4-((5-((tetrahydrofuran-3-yl)oxy)-2,3-dihydro-[1,4]dioxino[2,3-f]quinazolin-10-yl)oxy)phenyl)urea]
< 50 | COc1cc2ncnc(Oc3ccc(NC(=O)NC4CCCCC4)c(Cl)c3)c2c2c1OCCO2 [Example 33, 1-(2-chloro-4-((5-methoxy-2,3-dihydro-[1,4]dioxino[2,3-f]quinazolin-10-yl)oxy)phenyl)-3-cyclohexylurea]
< 50 | COc1cc2ncnc(Oc3ccc(NC(=O)Nc4ccc(F)cc4)c(Cl)c3)c2c2c1OCCO2 [Example 16, 1-(2-chloro-4-((5-methoxy-2,3-dihydro-[1,4]dioxino[2,3-f]quinazolin-10-yl)oxy)phenyl)-3-(4-fluorophenyl)urea]
50 to 500 | COc1cc2ncnc(Nc3ccc(NC(=O)NC(C)C)c(Cl)c3)c2c2c1OCCO2 [Example 9, 1-(2-chloro-4-((5-methoxy-2,3-dihydro-[1,4]dioxino[2,3-f]quinazolin-10-yl)amino)phenyl)-3-isopropylurea]
< 50 | COCCOc1cc2ncnc(Oc3ccc(NC(=O)Nc4cccc(OC)c4)cc3Cl)c2c2c1OCCO2 [Example 51, 1-(3-chloro-4-((5-(2-methoxyethoxy)-2,3-dihydro-[1,4]dioxino[2,3-f]quinazolin-10-yl)oxy)phenyl)-3-(3-methoxyphenyl)urea]

Second part, the compound before the results:

Structure (SMILES) | IC50 [nM]
COCCOc1cc2ncnc(Oc3ccc(NC(=O)NC4CCCCC4)c(Cl)c3)c2c2c1OCCO2 [Example 56, 1-(2-chloro-4-((5-(2-methoxyethoxy)-2,3-dihydro-[1,4]dioxino[2,3-f]quinazolin-10-yl)oxy)phenyl)-3-cyclohexylurea] | < 50
COCCCCCCOc1cc2ncnc(Oc3ccc(NC(=O)NC4CC4)c(Cl)c3)c2c2c1OCCO2 [Example 88] | < 50
COCCOc1cc2ncnc(Nc3ccc(NC(=O)NC4CC4)c(Cl)c3)c2c2c1OCCO2 [Example 34, 1-(2-chloro-4-((5-(2-methoxyethoxy)-2,3-dihydro-[1,4]dioxino[2,3-f]quinazolin-10-yl)amino)phenyl)-3-cyclopropylurea] | < 50
COc1cc2ncnc(Nc3ccc(NC(=O)NC4CCC4)c(Cl)c3)c2c2c1OCCO2 [Example 27, 1-(2-chloro-4-((5-methoxy-2,3-dihydro-[1,4]dioxino[2,3-f]quinazolin-10-yl)amino)phenyl)-3-cyclobutylurea] | < 50
COc1cc2ncnc(Nc3ccc(NC(=O)NC4CC4)c(Cl)c3)c2c2c1OCCO2 [Example 2, 1-(2-chloro-4-((5-methoxy-2,3-dihydro-[1,4]dioxino[2,3-f]quinazolin-10-yl)amino)phenyl)-3-cyclopropylurea] | < 50
O=C(Nc1ccc(Oc2ncnc3cc(OCCN4CCOCC4)c4c(c23)OCCO4)cc1)Nc1ccc(Cl)c(C(F)(F)F)c1 [Example 72, 1-(4-chloro-3-(trifluoromethyl)phenyl)-3-(4-((5-(2-morpholinoethoxy)-2,3-dihydro-[1,4]dioxino[2,3-f]quinazolin-10-yl)oxy)phenyl)urea] | 500 to 5000
COCCOc1cc2ncnc(Oc3ccc(NC(=O)Nc4cc(C(F)(F)F)ccc4F)c(F)c3)c2c2c1OCCO2 [Example 57, 1-(2-fluoro-4-((5-(2-methoxyethoxy)-2,3-dihydro-[1,4]dioxino[2,3-f]quinazolin-10-yl)oxy)phenyl)-3-(2-fluoro-5-(trifluoromethyl)phenyl)urea] | < 50
COCCOc1cc2ncnc(Oc3ccc(NC(=O)Nc4ccc(Cl)c(C(F)(F)F)c4)cc3F)c2c2c1OCCO2 [Example 59, 1-(4-chloro-3-(trifluoromethyl)phenyl)-3-(3-fluoro-4-((5-(2-methoxyethoxy)-2,3-dihydro-[1,4]dioxino[2,3-f]quinazolin-10-yl)oxy)phenyl)urea] | < 50
COCCOc1cc2nccc(Oc3ccc(NC(=O)Nc4ccc(Cl)c(C(F)(F)F)c4)cc3)c2c2c1OCCO2 [Example 93, 1-(4-chloro-3-(trifluoromethyl)phenyl)-3-(4-((5-(2-methoxyethoxy)-2,3-dihydro-[1,4]dioxino[2,3-f]quinoline-10-yl)oxy)phenyl)urea] | 50 to 500
O=C(Nc1ccc(Cl)c(C(F)(F)F)c1)Nc1ccc(Oc2ncnc3cc(OCCCN4CCOCC4)c4c(c23)OCCO4)cc1F [Example 69, 1-(4-chloro-3-(trifluoromethyl)phenyl)-3-(2-fluoro-4-((5-(3-morpholinopropoxy)-2,3-dihydro-[1,4]dioxino[2,3-f]quinazolin-10-yl)oxy)phenyl)urea] | < 50
COc1cc2ncnc(Nc3ccc(NC(=O)NC4CC4)cc3)c2c2c1OCCO2 [Example 1, 1-(4-((5-methoxy-2,3-dihydro-[1,4]dioxino[2,3-f]quinazolin-10-yl)amino)phenyl)-3-cyclopropylurea] | 50 to 500
COc1cc2ncnc(Nc3ccc(NC(=O)NC4CCCCC4)c(Cl)c3)c2c2c1OCCO2 [Example 29, 1-(2-chloro-4-((5-methoxy-2,3-dihydro-[1,4]dioxino[2,3-f]quinazolin-10-yl)amino)phenyl)-3-cyclohexylurea] | 500 to 5000
O=C(Nc1ccc(Oc2ncnc3cc(OCCCN4CCOCC4)c4c(c23)OCCO4)cc1)Nc1cccc2ccccc12 [Example 31, 1-(4-((5-(3-morpholinopropoxy)-2,3-dihydro-[1,4]dioxino[2,3-f]quinazolin-10-yl)oxy)phenyl)-3-(naphthalen-1-yl)urea] | < 50
O=C(Nc1ccc(Oc2ncnc3cc(OCCCN4CCOCC4)c4c(c23)OCCO4)cc1)Nc1ccc(F)c(C(F)(F)F)c1 [Example 75, 1-(4-fluoro-3-(trifluoromethyl)phenyl)-3-(4-((5-(3-morpholinopropoxy)-2,3-dihydro-[1,4]dioxino[2,3-f]quinazolin-10-yl)oxy)phenyl)urea] | < 50
CSCCOc1cc2ncnc(Nc3ccc(NC(=O)NC4CC4)c(Cl)c3)c2c2c1OCCO2 [Example 84, 1-(2-chloro-4-((5-(2-methylthioethoxy)-2,3-dihydro-[1,4]dioxino[2,3-f]quinazolin-10-yl)amino)phenyl)-3-cyclopropylurea] | < 50
COCCOc1cc2ncnc(Nc3ccc(NC(=O)Nc4ccnc(OC)c4)c(Cl)c3)c2c2c1OCCO2 [Example 41, 1-(2-chloro-4-((5-(2-methoxyethoxy)-2,3-dihydro-[1,4]dioxino[2,3-f]quinazolin-10-yl)amino)phenyl)-3-(2-methoxypyridin-4-yl)urea] | < 50

From patent US10980809B2, “Urea-substituted aromatic ring-linked dioxane-quinazoline and -linked dioxane-quinoline compounds, preparation method therefor and use thereof” (BEIJING SCITECH-MQ PHARMACEUTICALS LIMITED, priority 2017, dated 2021)
